Measured values as given in patent US10189836B2, “Therapeutic compounds, compositions and methods of use thereof” (Genentech, Inc., priority 2015, dated 2019).

Assays:
[1] = biological target: isolated recombinant JAK2 kinase domain (Homo sapiens (Human), UniProt O60674); assay: JAK2 enzyme assay (Caliper LabChip, Ki); type: biochemical; settings: isolated recombinant JAK2 kinase domain, 0.2 nM enzyme, ATP 25 μM
[2] = biological target: isolated recombinant JAK1 kinase domain (Homo sapiens (Human), UniProt P23458); assay: JAK1 enzyme assay (Caliper LabChip, Ki); type: biochemical; settings: isolated recombinant JAK1 kinase domain, 1.5 nM enzyme, ATP 25 μM
Sequence of isolated recombinant JAK1 kinase domain (P23458 875-1153): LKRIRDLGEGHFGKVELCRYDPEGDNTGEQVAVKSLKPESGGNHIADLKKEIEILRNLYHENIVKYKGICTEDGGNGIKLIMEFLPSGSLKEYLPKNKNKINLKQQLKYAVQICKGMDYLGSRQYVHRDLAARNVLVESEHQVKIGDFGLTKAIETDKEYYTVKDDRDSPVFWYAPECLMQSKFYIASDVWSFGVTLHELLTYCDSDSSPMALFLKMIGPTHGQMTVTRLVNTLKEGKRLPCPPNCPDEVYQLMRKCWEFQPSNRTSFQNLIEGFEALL

Sequence of isolated recombinant JAK2 kinase domain (O60674 849-1124): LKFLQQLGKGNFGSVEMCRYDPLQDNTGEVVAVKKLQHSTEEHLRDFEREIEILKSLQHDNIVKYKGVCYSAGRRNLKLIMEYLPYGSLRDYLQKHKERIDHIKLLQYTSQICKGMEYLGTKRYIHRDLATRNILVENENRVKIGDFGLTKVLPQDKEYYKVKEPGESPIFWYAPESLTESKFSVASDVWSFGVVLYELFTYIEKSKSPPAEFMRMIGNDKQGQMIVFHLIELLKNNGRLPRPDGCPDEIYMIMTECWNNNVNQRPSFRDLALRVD

SMILES	Ki [1] [nM]	Ki [2] [nM]
CN1CCN(C(=O)Cn2cc(Nc3nc4c(N5CC6CCC(C5)N6C(=O)Cc5ccncc5)cccn4n3)cn2)CC1 [Example 42, 1-[3-[2-[[1-[2-(4-methylpiperazin-1-yl)-2-oxo-ethyl]pyrazol-4-yl]amino]-[1,2,4]triazolo[1,5-a]pyridin-8-yl]-3,8-diazabicyclo[3.2.1]octan-pyridyl)ethanone]	5.7	1.6
CN1CCN(C(=O)Cn2cc(Nc3nc4c(N5CC6CCC(C5)C6C(=O)N5CC(C(F)(F)F)C5)cccn4n3)cn2)CC1 (centres unmarked) [Example 43, 1-(4-methylpiperazin-1-yl)-2-(4-[[8-(8-[[3-(trifluoromethyl)azetidin-1-yl]carbonyl]-3-azabicyclo[3.2.1]octan-3-yl)-[1,2,4]triazolo[1,5-a]pyridin-2-yl]amino]-1H-pyrazol-1-yl)ethan-1-one]	1.9	1.1
O=C(Cn1cc(Nc2nc3c(N4CC5CCC(C4)N5C(=O)N4CC(C(F)(F)F)C4)cccn3n2)cn1)N1CCC(N2CCOCC2)CC1 [Example 44, 1-(4-morpholino-1-piperidyl)-2-[4-[[8-[8-[3-(trifluoromethyl)azetidine-1-carbonyl]-3,8-diazabicyclo[3.2.1]octan-3-yl]-[1,2,4]triazolo[1,5-a]pyridin-2-yl]amino]pyrazol-1-yl]ethanone]	0.6	0.9
CN1CCN(C(=O)Cn2cc(Nc3nc4c(N5CC6CCC(C5)N6C(=O)COCC(F)(F)F)cccn4n3)cn2)CC1 [Example 45, 1-(4-methylpiperazin-1-yl)-2-[4-[[8-[8-[2-(2,2,2-trifluoroethoxy)acetyl]-3,8-diazabicyclo[3.2.1]octan-3-yl]-[1,2,4]triazolo[1,5-a]pyridin-2-yl]amino]pyrazol-1-yl]ethanone]	3.5	1
CN1CCN(C(=O)Cn2cc(Nc3nc4c(N5CC6CCC(C5)N6C(=O)C5CC(F)(F)C5)cccn4n3)cn2)CC1 [Example 46, 2-[4-[[8-[8-(3,3-difluorocyclobutanecarbonyl)-3-yl]-3,8-diazabicyclo[3.2.1]octan-[1,2,4]triazolo[1,5-a]pyridin-2-yl]amino]pyrazol-1-yl]-1-(4-methylpiperazin-1-yl)ethanone]	1.7	1.4
CC(CC(F)(F)F)C(=O)N1C2CCC1CN(c1cccn3nc(Nc4cnn(CC(=O)N5CCN(C)CC5)c4)nc13)C2 (centres unmarked) [Example 47, 4,4,4-trifluoro-2-methyl-1-[3-[2-[[1-[2-(4-methylpiperazin-1-yl)-2-oxo-ethyl]pyrazol-4-yl]amino]-[1,2,4]triazolo[1,5-a]pyridin-8-yl]-3,8-diazabicyclo[3.2.1]octan-8-yl]butan-1-one]	2	1.8
CN1CCN(C(=O)Cn2cc(Nc3nc4c(N5C6CC5CN(C(=O)CCC(F)(F)F)C6)cccn4n3)cn2)CC1 [Example 48, 4,4,4-trifluoro-1-[6-[2-[[1-[2-(4-methylpiperazin-1-yl)-2-oxo-ethyl]pyrazol-4-yl]amino]-[1,2,4]triazolo[1,5-a]pyridin-8-yl]-3,6-diazabicyclo[3.1.1]heptan-3-yl]butan-1-one]	> 320	> 560
CN1CCN(C(=O)Cn2cc(Nc3nc4c(N5CC6CCC(C5)N6C(=O)C5C6CC(F)(F)CC65)cccn4n3)cn2)CC1 (centres unmarked) [Example 49, 2-[4-[[8-[8-(3,3-difluorobicyclo[3.1.0]hexane-6-carbonyl)-3,8-diazabicyclo[3.2.1]octan-3-yl]-[1,2,4]triazolo[1,5-a]pyridin-2-yl]amino]pyrazol-1-yl]-1-(4-methylpiperazin-1-yl)ethanone]	4.1	1.5
CN1CCN(C(=O)Cn2cc(Nc3nc4c(N5CC6CCC(C5)N6C(=O)C5CCSC5)cccn4n3)cn2)CC1 (centres unmarked) [Example 50, 1-(4-methylpiperazin-1-yl)-2-[4-[[8-[8-(tetrahydrothiophene-3-carbonyl)-3,8-diazabicyclo[3.2.1]octan-3-yl]-[1,2,4]triazolo[1,5-a]pyridin-2-yl]amino]pyrazol-1-yl]ethanone]	1.5	1.2
CN1CCN(C(=O)Cn2cc(Nc3nc4c(N5CC6CCC(C5)N6C(=O)C5CCC(F)(F)CC5)cccn4n3)cn2)CC1 [Example 51, 2-[4-[[8-[8-(4,4-difluorocyclohexanecarbonyl)-3,8-diazabicyclo[3.2.1]octan-3-yl]-[1,2,4]triazolo[1,5-a]pyridin-2-yl]amino]pyrazol-1-yl]-1-(4-methylpiperazin-1-yl)ethanone]	4.8	2
CN1CCN(C(=O)Cn2cc(Nc3nc4c(N5CC6CCC(C5)N6C(=O)C5CCSCC5)cccn4n3)cn2)CC1 [Example 52, 1-(4-methylpiperazin-1-yl)-2-[4-[[8-[8-(tetrahydrothiopyran-4-carbonyl)-3,8-diazabicyclo[3.2.1]octan-3-yl]-[1,2,4]triazolo[1,5-a]pyridin-2-yl]amino]pyrazol-1-yl]ethanone]	5.2	3.1
CN1CCN(C(=O)Cn2cc(Nc3nc4c(N5CC6CCC(C5)N6C(=O)C5CC6CCC5O6)cccn4n3)cn2)CC1 (centres unmarked) [Example 53, 1-(4-methylpiperazin-1-yl)-2-[4-[[8-[8-(7-oxabicyclo[2.2.1]heptane-3-carbonyl)-3,8-diazabicyclo[3.2.1]octan-3-yl]-[1,2,4]triazolo[1,5-a]pyridin-2-yl]amino]pyrazol-1-yl]ethanone]	2.8	1.9
CN1CCN(C(=O)Cn2cc(Nc3nc4c(N5CC6CCC(C5)N6C(=O)COC(F)(F)F)cccn4n3)cn2)CC1 [Example 54, 1-(4-methylpiperazin-1-yl)-2-[4-[[8-[8-[2-(trifluoromethoxy)acetyl]-3,8-diazabicyclo[3.2.1]octan-3-yl]-[1,2,4]triazolo[1,5-a]pyridin-2-yl]amino]pyrazol-1-yl]ethanone]	4.9	1.6
CN1CCN(C(=O)Cn2cc(Nc3nc4c(N5CC6CCC(C5)N6Cc5cccc(C#N)c5)cccn4n3)cn2)CC1 [Example 55, 3-[[3-[2-[[1-[2-(4-methylpiperazin-1-yl)-2-oxo-ethyl]pyrazol-4-yl]amino]-[1,2,4]triazolo[1,5-a]pyridin-8-yl]-3,8-diazabicyclo[3.2.1]octan-8-yl]methyl]benzonitrile]	4	1.9
CN1CCN(C(=O)Cn2cc(Nc3nc4c(N5CC6CCC(C5)N6Cc5ccc(C#N)cc5)cccn4n3)cn2)CC1 [Example 56, 4-[[3-[2-[[1-[2-(4-methylpiperazin-1-yl)-2-oxo-ethyl]pyrazol-4-yl]amino]-[1,2,4]triazolo[1,5-a]pyridin-8-yl]-3,8-diazabicyclo[3.2.1]octan-8-yl]methyl]benzonitrile]	5.1	1.4
CN1CCN(C(=O)Cn2cc(Nc3nc4c(N5CC6CCC(C5)N6C(=O)C5CCC(F)(F)C5)cccn4n3)cn2)CC1 (centres unmarked) [Example 58, 2-[4-[[8-[8-(3,3-difluorocyclopentanecarbonyl)-3,8-diazabicyclo[3.2.1]octan-3-yl]-[1,2,4]triazolo[1,5-a]pyridin-2-yl]amino]pyrazol-1-yl]-1-(4-methylpiperazin-1-yl)ethanone]	2.5	1.6
CCN1CCN(C(=O)Cn2cc(Nc3nc4c(N5CC6CCC(C5)N6C(=O)N5CC(C(F)(F)F)C5)cccn4n3)cn2)CC1 [Example 59, 1-(4-ethylpiperazin-1-yl)-2-[4-[[8-[8-[3-(trifluoromethyl)azetidine-1-carbonyl]-3,8-diazabicyclo[3.2.1]octan-3-yl]-[1,2,4]triazolo[1,5-a]pyridin-2-yl]amino]pyrazol-1-yl]ethanone]	0.5	0.8
CN1CCN(C(=O)Cn2cc(Nc3nc4c(N5CC6CCC(C5)N6S(=O)(=O)CCC(F)(F)F)cccn4n3)cn2)CC1 [Example 60, 1-(4-methylpiperazin-1-yl)-2-[4-[[8-[8-(3,3,3-trifluoropropylsulfonyl)-3,8-diazabicyclo[3.2.1]octan-3-yl]-[1,2,4]triazolo[1,5-a]pyridin-2-yl]amino]pyrazol-1-yl]ethanone]	1.5	0.7
CN1CCN(C(=O)Cn2cc(Nc3nc4c(N5CC6CCC(C5)N6S(=O)(=O)c5ccccc5)cccn4n3)cn2)CC1 [Example 61, 2-[4-[[8-[8-(benzenesulfonyl)-3,8-diazabicyclo[3.2.1]octan-3-yl]-[1,2,4]triazolo[1,5-a]pyridin-2-yl]amino]pyrazol-1-yl]-1-(4-methylpiperazin-1-yl)ethanone]	1	0.6
CN(C1CCN(C(=O)Cn2cc(Nc3nc4c(N5CC6CCC(C5)N6C(=O)N5CC(C(F)(F)F)C5)cccn4n3)cn2)CC1)C1COC1 [Example 62, 1-[4-[methyl(oxetan-3-yl)amino]piperidin-1-yl]-2-(4-[[8-(8-[[3-(trifluoromethyl)azetidin-1-yl]carbonyl]-3,8-diazabicyclo[3.2.1]octan-3-yl)-[1,2,4]triazolo[1,5-a]pyridin-2-yl]amino]-1H-pyrazol-1-yl)ethan-1-one]	0.5	0.7
CN1CCN(C(=O)Cn2cc(Nc3nc4c(N5CC6CCC(C5)N6Cc5ccccc5C#N)cccn4n3)cn2)CC1 [Example 63, 2-[[3-[2-[[1-[2-(4-methylpiperazin-1-yl)-2-oxo-ethyl]pyrazol-4-yl]amino]-[1,2,4]triazolo[1,5-a]pyridin-8-yl]-3,8-diazabicyclo[3.2.1]octan-8-yl]methyl]benzonitrile]	2.4	1.8
CN1CCN(C(=O)Cn2cc(Nc3nc4c(N5CC6CCC(C5)N6C(=O)Cc5ccccc5F)cccn4n3)cn2)CC1 [Example 64, 2-(2-fluorophenyl)-1-[3-[2-[[1-[2-(4-methylpiperazin-1-yl)-2-oxo-ethyl]pyrazol-4-yl]amino]-[1,2,4]triazolo[1,5-a]pyridin-8-yl]-3,8-diazabicyclo[3.2.1]octan-8-yl]ethanone]	7.2	1.9
